Test results: US4317768A, “Dihydropyridine derivatives as stabilizers for vinyl chloride polymers” (priority 1977, dated 1982)

Key:
[1] = Polarographic study of the oxidation potential; format: physicochemical; settings: acetonitrile, 0.1 M lithium perchlorate, vitrous carbon electrode, calomel reference
From the text: By a polarographic study of their oxidation potential, compared to well-known antioxidants such as 2,6-diterbutyl-4-methyl-phenol, 2-terbutyl-4-methoxy-phenol, 4-methoxy-phenol and hydroquinone.
Reference electrode: Calomel electrode containing a saturated solution of anhydrous lithium perchlorate as bridge liquid.
Working electrode: Vitrous carbon rotating electrode (2,500 r.p.m.)
Counter-electrode: Platinum electrode
Acetonitrile containing less than 0.1% of water and presenting no polarographic waves between -2.5 V and +2.5 V.
Anhydrous lithium perchlorate containing less than 1% of water.
A 0.1 M solution of lithium perchlorate in acetonitrile, treated and preserved on a 4 A molecular sieve.
Amplitude of exploration: 0 to 2 V
Speed of exploration: 10 mV/second
Sensitivity: 1.25 μA to 50 μA
Mean concentration: about 0.3×10^-3 mol/liter
Between each measurement, the vitrous carbon electrode and the platinum electrode were carefully cleaned with Joseph paper.

[2] = Comparison with 2-phenyl-indole, vinyl chloride-vinylidene chloride co-polymer, 210° C.; settings: 0.3 part
Protocol: A second test was made using the following compound:
The sheets were heated in a ventilated oven at 210° C. and the following results were obtained: […]

[3] = Thermostability, flexible co-polymer (c), Metrastat oven 160° C.; settings: 0.3 part
Protocol: (§1) The study of the static thermostability of vinyl co-polymers was carried out according to the GARDNER method described above and, also in a more detailed manner in British Patent No. 1,489,685.
(c) Flexible co-polymer vinyl chloride-vinyl acetate
(§2) The following compound was prepared:
The sheets were heated in a Metrastat oven at 160° C. and the following results were obtained: […]

[4] = Comparison with stabilizer G1, 0.3 part, 185° C.
[5] = Thermostability, flexible co-polymer (b), Metrastat oven 160° C.; settings: 0.2 part
Protocol: as §1
(b) Flexible co-polymer vinyl chloride-vinyl acetate.
as §2
The resin was allowed to gel for 5 minutes at 120° C. and the sheets were heated at 160° C. in a Metrastat oven.

[6] = Photostabilizing power, sheets exposed to the sun, rigid co-polymer (b)
Protocol: (§3) The sheets were exposed to the sun and their colorations were also determined according to the GARDNER method.

[7] = Static thermostability (GARDNER method), rigid PVC sheets, 210° C., 0.3 part stabilizer
Protocol: This study was carried out according to the GARDNER method, described in British Pat. No. 1,489,685.
The reference substance was 2-phenyl-indole, a well-known and widely used stabilizer.
The stabilizer (dihydropyridine or 2-phenyl-indole) and the other usual ingredients were mixed with powdered vinyl resins and the mixtures were calendered at a temperature of 160° C. to give rigid sheets.
The sheets were then heated in a thermostated oven (185° C. or 210° C.) for different intervals of time until incipient carbonization.
The coloration of the samples was compared to a standard scale of coloration, known as the GARDNER scale and was expressed in terms of the reference figures of the GARDNER scale.
This study was carried out with the following resin:
Polyvinyl chloride resin
SL 2016 is a solution of zinc-2-ethyl-hexanoate in a mixture of hydrocarbons boiling between 158° C. and 184° C.
The first trial was carried out at 210° C. with a resin containing 0.3 part by weight of stabilizer, the sheets being removed from the oven every three minutes over a period of 21 minutes.

[8] = Photostabilizing power, sheets exposed to the sun, co-polymer (a)
Protocol: as §3

[9] = Static thermostability (GARDNER), rigid co-polymer, 185° C.; settings: for coloration, GARDNER scale: 0.1 part
Protocol: as §1
(a) Rigid co-polymer vinyl chloride-vinyl acetate
as §2
(§4) The sheets were heated in a ventilated oven at 185° C. and the following results were obtained: […]

[10] = Comparison with 1,4-butanediol-β-aminocrotonate and methyl-β-aminocrotonate, rigid co-polymer, 185° C.; settings: 0.5 part
Protocol: (a) Comparison with 1,4-butanediol-β-aminocrotonate and with methyl-β-aminocrotonate.
The following rigid co-polymer was prepared:
as §4

[11] = Thermostability, rigid co-polymer (d), ventilated oven 210° C.; settings: 0.3 part
Protocol: as §1
(d) Rigid co-polymer vinyl chloride-vinylidene chloride
as §2
The sheets were heated in a ventilated oven at 210° C.

COc1ccc(O)c(C(C)(C)C)c1 [2-Terbutyl-4-methoxy-phenol]
Oxidation potential [1]: 0.81 ± 0.01 volts

CC1=C(C(=O)OCCOc2ccccc2)CC(C(=O)OCCOc2ccccc2)=C(C)N1 [Compound 28]
coloration, GARDNER scale ([2]; 0 min): 1.5 | coloration, GARDNER scale ([2]; 3 min): 2 | coloration, GARDNER scale ([2]; 6 min): 3 | coloration, GARDNER scale ([2]; 9 min): 3.5 | coloration, GARDNER scale ([2]; 12 min): 7 | coloration, GARDNER scale ([2]; 15 min): 15 | coloration, GARDNER scale ([3]; 0 min): 1 | coloration, GARDNER scale ([3]; 10 min): 1 | coloration, GARDNER scale ([3]; 20 min): 2 | coloration, GARDNER scale ([3]; 30 min): 5 | coloration, GARDNER scale ([3]; 40 min): 7 | coloration, GARDNER scale ([3]; 50 min): 10 | coloration, GARDNER scale ([3]; 60 min): 12 | coloration, GARDNER scale ([4]; 0 min): 1 | coloration, GARDNER scale ([4]; 2 min): 1 | coloration, GARDNER scale ([4]; 4 min): 2 | coloration, GARDNER scale ([4]; 6 min): 4 | coloration, GARDNER scale ([4]; 8 min): 5 | coloration, GARDNER scale ([4]; 10 min): 9 | coloration, GARDNER scale ([4]; 12 min): 11 | coloration, GARDNER scale ([4]; 14 min): 13 | coloration, GARDNER scale ([5]; 0 min): 1 | coloration, GARDNER scale ([5]; 30 min): 2 | coloration, GARDNER scale ([5]; 40 min): 6 | coloration, GARDNER scale ([5]; 50 min): 12 | coloration, GARDNER scale ([5]; 60 min): 15 | Colour in GARDNER degrees ([6]; After 24 hours): 3.5 GARDNER degrees | Colour in GARDNER degrees ([6]; Time 0): 1.5 GARDNER degrees | coloration, GARDNER scale ([7]; 0 min): 1 | coloration, GARDNER scale ([7]; 3 min): 1 | coloration, GARDNER scale ([7]; 6 min): 1 | coloration, GARDNER scale ([7]; 9 min): 3 | coloration, GARDNER scale ([7]; 12 min): 4 | coloration, GARDNER scale ([7]; 15 min): 5 | coloration, GARDNER scale ([7]; 18 min): 10 | coloration, GARDNER scale ([7]; 21 min): Burnt | Colour in GARDNER degrees ([8]; After 24 hours): 1 GARDNER degrees | Colour in GARDNER degrees ([8]; Time 0): 1 GARDNER degrees | thermostabilizing properties, in words [9]: clearly show the thermostabilizing properties | coloration, GARDNER scale ([9]; 0 min): 1 | coloration, GARDNER scale ([9]; 2 min): 1 | coloration, GARDNER scale ([9]; 4 min): 4 | coloration, GARDNER scale ([9]; 6 min): 10 | coloration, GARDNER scale ([9]; 8 min): 12 | coloration, GARDNER scale ([9]; 10 min): 13 | coloration, GARDNER scale ([9]; 12 min): 15 | coloration, GARDNER scale ([9]; 14 min): 17 | coloration, GARDNER scale ([10]; 0 min): 1 | coloration, GARDNER scale ([10]; 2 min): 1 | coloration, GARDNER scale ([10]; 4 min): 5 | coloration, GARDNER scale ([10]; 6 min): 7 | coloration, GARDNER scale ([10]; 8 min): 11 | coloration, GARDNER scale ([10]; 10 min): 13 | coloration, GARDNER scale ([10]; 12 min): 17 | coloration, GARDNER scale ([11]; 0 min): 1.5 | coloration, GARDNER scale ([11]; 3 min): 2 | coloration, GARDNER scale ([11]; 6 min): 3 | coloration, GARDNER scale ([11]; 9 min): 3.5 | coloration, GARDNER scale ([11]; 12 min): 7 | coloration, GARDNER scale ([11]; 15 min): 15

COc1ccc(O)cc1 [4-Methoxy-phenol]
Oxidation potential [1]: 0.89 ± 0.01 volts

Oc1ccc(O)cc1 [Hydroquinone]
Oxidation potential [1]: 0.83 ± 0.01 volts
